Measured values published in US11840686B2, “Modulation of prekallikrein (PKK) expression” (Ionis Pharmaceuticals, Inc., priority 2013, dated 2023).
Strand notation (5' to 3'): a small letter for the sugar, then the base; units joined by * are phosphorothioate-linked, units joined directly phosphodiester-linked; [ ] holds rarer units or linkages, { } end groups; capitals alone tell only the bases. e = 2'-O-(2-methoxyethyl) (MOE); [5mC] = 5-methylcytosine; d = 2'-deoxy (DNA)

Experiments:
[1] = test system: human PKK mRNA; assay: Antisense inhibition of human PKK mRNA in HepaRG cells, 5,000 nM (Example 2); format: cell-based; details: HepaRG cells, electroporation with 5,000 nM antisense oligonucleotide, approx. 24 hours, PKK mRNA by RT-PCR (RTS3454), relative to untreated control cells
Procedure, shortened: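 Percent inhibition of PKK mRNA is reported relative to untreated cells, after adjustment for total RNA by RIBOGREEN. Gapmers of 16–20 nucleosides with 2′-MOE wings were delivered at 5,000 nM by electroporation into HepaRG cells and left for roughly 24 hours before RNA isolation.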

[2] = test system: human PKK mRNA; assay: Dose-dependent antisense inhibition of human PKK in HepaRG cells, 0.19-5.00 uM (Example 5); format: cell-based
Procedure, shortened: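 HepaRG cells (20,000/well) were electroporated with antisense oligonucleotide at 0.19, 0.56, 1.67 and 5.00 μM and treated for about 16 hours. PKK mRNA was quantified by qRT-PCR with primer probe set RTS3454, normalised to RIBOGREEN total RNA, and IC50 was derived per oligonucleotide.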

[3] = HepaRG cells, electroporation, approximately 16 hours, Table 39
[4] = HepaRG cells, electroporation, approximately 16 hours, Table 37
[5] = HepaRG cells, electroporation, approximately 16 hours, Table 36
[6] = 4 point dose response, HepaRG cells, Table 36
[7] = HepaRG cells, electroporation, approximately 16 hours, Table 40
[8] = Table 34, HepaRG, electroporation, ~16 h
[9] = Table 34, PKK mRNA, HepaRG, electroporation, ~16 h
[10] = HepaRG cells, electroporation, approximately 16 hours, Table 41
[11] = 4 point dose response, HepaRG cells, Table 41

## 547366 (eG*eG*eA*eG*eT*dG*dA*dG*dA*dA*d[5mC]*d[5mC]*d[5mC]*dT*dG*eG*e[5mC]*eA*eA*e[5mC]; antisense) [compound 547366]
[1]; Table 7
  % inhibition: 86%
[2]; [3]
  percent inhibition of PKK at 0.19 μM: 0%
  percent inhibition of PKK at 0.56 μM: 45%
  percent inhibition of PKK at 1.67 μM: 68%
  percent inhibition of PKK at 5.00 μM: 91%
[2]; 4 point dose response, HepaRG cells, Table 39
  IC50: 1200 nM

## 547368 (eG*e[5mC]*eA*eT*e[5mC]*dT*dG*dG*dA*dG*dT*dG*dA*dG*dA*eA*e[5mC]*e[5mC]*e[5mC]*eT; antisense) [compound 547368]
[1]; Table 7
  % inhibition: 89%
[2]; [4]
  percent inhibition of PKK at 0.19 μM: 0%
  percent inhibition of PKK at 0.56 μM: 0%
  percent inhibition of PKK at 1.67 μM: 31%
  percent inhibition of PKK at 5.00 μM: 80%
[2]; 4 point dose response, HepaRG cells, Table 37
  IC50: 2500 nM

## 547373 (eG*e[5mC]*eA*eG*eA*dT*dG*dG*dT*d[5mC]*d[5mC]*dG*dA*d[5mC]*dA*e[5mC]*eA*e[5mC]*eA*eA; antisense) [compound 547373]
[1]; Table 7
  % inhibition: 90%
[2]; [5]
  percent inhibition of PKK at 0.19 μM: 20%
  percent inhibition of PKK at 0.56 μM: 7%
  percent inhibition of PKK at 1.67 μM: 49%
  percent inhibition of PKK at 5.00 μM: 86%
[2]; [6]
  IC50: 1100 nM

## 547374 (eG*eA*eT*eA*eG*dG*dT*dG*d[5mC]*dA*dG*dA*dT*dG*dG*eT*e[5mC]*e[5mC]*eG*eA; antisense) [compound 547374]
[1]; Table 7
  % inhibition: 81%
[2]; [7]
  percent inhibition of PKK at 0.19 μM: 0%
  percent inhibition of PKK at 0.56 μM: 15%
  percent inhibition of PKK at 1.67 μM: 24%
  percent inhibition of PKK at 5.00 μM: 44%
[2]; 4 point dose response, HepaRG cells, Table 40
  IC50: > 5000 nM

## 547413 (eG*eT*eG*eA*eA*dA*dA*dA*d[5mC]*dT*dG*dA*d[5mC]*dA*dG*e[5mC]*eG*eA*eA*eT; antisense) [compound 547413]
[1]; Table 8
  % inhibition: 94%
[2]; [8]
  percent inhibition of PKK at 0.19 μM: 0%
  percent inhibition of PKK at 0.56 μM: 0%
  percent inhibition of PKK at 1.67 μM: 41%
  percent inhibition of PKK at 5.00 μM: 83%
[2]; [9]
  IC50: 2200 nM

## 547423 (e[5mC]*e[5mC]*e[5mC]*eT*eT*dG*dT*dG*dT*d[5mC]*d[5mC]*d[5mC]*dA*dT*dA*e[5mC]*eG*e[5mC]*eA*eA; antisense) [compound 547423]
[1]; Table 8
  % inhibition: 95%
[2]; [10]
  percent inhibition of PKK at 0.19 0μM: 78%
  percent inhibition of PKK at 0.56 0μM: 92%
[2]; [11]
  IC50: < 200 nM
[2]; [8]
  percent inhibition of PKK at 0.19 μM: 37%
  percent inhibition of PKK at 0.56 μM: 50%
  percent inhibition of PKK at 1.67 μM: 92%
  percent inhibition of PKK at 5.00 μM: 90%
[2]; [9]
  IC50: 400 nM

## 547426 (eG*eA*eG*eT*eA*dA*d[5mC]*d[5mC]*dA*dG*dA*dG*d[5mC]*dT*d[5mC]*e[5mC]*e[5mC]*eT*eT*eG; antisense) [compound 547426]
[1]; Table 8
  % inhibition: 92%
[2]; [5]
  percent inhibition of PKK at 0.19 μM: 19%
  percent inhibition of PKK at 0.56 μM: 50%
  percent inhibition of PKK at 1.67 μM: 84%
  percent inhibition of PKK at 5.00 μM: 93%
[2]; [6]
  IC50: 600 nM
[2]; HepaRG cells, 0.19 μM antisense oligonucleotide
  percent inhibition of PKK mRNA, 0.19 μM: 18%
[2]; HepaRG cells, 0.56 μM antisense oligonucleotide
  percent inhibition of PKK mRNA, 0.56 μM: 35%
[2]; HepaRG cells, 1.67 μM antisense oligonucleotide
  percent inhibition of PKK mRNA, 1.67 μM: 80%
[2]; HepaRG cells, 5.00 μM antisense oligonucleotide
  percent inhibition of PKK mRNA, 5.00 μM: 95%
[2]; HepaRG cells, 0.19-5.00 μM
  IC50: 700 nM

## 547445 (antisense eG*e[5mC]*e[5mC]*eA*e[5mC]*dT*dA*dT*dA*dG*dA*dT*dG*d[5mC]*dG*e[5mC]*e[5mC]*eA*eA*eA) [compound 547445]
[1]; Table 8
  % inhibition: 97%
[2]; [10]
  percent inhibition of PKK at 5.00 μM: 91%
  percent inhibition of PKK at 0.19 0μM: 80%
  percent inhibition of PKK at 0.56 0μM: 87%
[2]; 1.67 1μM, HepaRG cells, electroporation, approximately 16 hours, Table 41
  percent inhibition of PKK at 1.67 1μM: 98%
[2]; [11]
  IC50: < 200 nM
[2]; [8]
  percent inhibition of PKK at 0.19 μM: 41%
  percent inhibition of PKK at 0.56 μM: 75%
  percent inhibition of PKK at 1.67 μM: 82%
  percent inhibition of PKK at 5.00 μM: 88%
[2]; [9]
  IC50: 200 nM
